From US20180098993A1, “USE OF (2R, 6R)-HYDROXYNORKETAMINE, (S)-DEHYDRON[…] OTHER STER[…] AND HYDROXYLATED METABOLITES OF (R,S)- KETAMINE IN THE TREATMENT OF DEPRESSION AND NEUROPATHIC PAIN” (THE UNITED STATES OF AMERICA, AS REPRESENTED BY THE …, priority 2011, published 2018)
Where a name gives a salt, the structure may show the parent alone. Read-outs that look alike come from different tables or passages of the source.

Columns and labels:
α7 nAChR = target: T1, α7 nAChR (Rattus norvegicus, UniProt Q05941); assay: whole-cell patch clamp, currents evoked by acetylcholine in KXα7R1; assay type: cell-based; conditions: for current evoked by 280 micromolar acetylcholine, normalized to current elicited by ACh alone (Mean): -80 mV, n=4; for inhibition at 0.1 µM: read-out: inhibition (α7) at 100 nM
T1 construct: expressed in transfected cells; host or cells: KXα7R1
T1 sequence (Q05941 23-502): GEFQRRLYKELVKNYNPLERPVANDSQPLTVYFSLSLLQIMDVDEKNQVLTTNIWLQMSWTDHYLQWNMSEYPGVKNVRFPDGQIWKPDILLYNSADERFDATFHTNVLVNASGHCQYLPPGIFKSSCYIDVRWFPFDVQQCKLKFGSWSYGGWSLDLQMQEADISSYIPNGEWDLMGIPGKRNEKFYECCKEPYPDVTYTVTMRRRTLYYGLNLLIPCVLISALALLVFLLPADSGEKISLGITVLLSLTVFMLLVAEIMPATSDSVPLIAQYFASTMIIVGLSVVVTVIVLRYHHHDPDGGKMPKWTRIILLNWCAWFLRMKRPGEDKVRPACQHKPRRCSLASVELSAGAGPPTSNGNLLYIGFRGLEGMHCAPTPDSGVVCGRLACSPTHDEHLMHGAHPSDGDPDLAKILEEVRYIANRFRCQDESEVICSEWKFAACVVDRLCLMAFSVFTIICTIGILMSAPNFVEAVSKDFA
Source text: (§1) Without wishing to be bound to any particular theory applicants believe certain compounds of Formula I exert activity via serine racemase inhibition. Since nicotinic acetylcholine receptors (nAChR) have been validated as a target in analgesia applicants investigated the activity of DHNK at two nAChR subtypes, α7 and α3β4 nAChR. Patch-clamp technique in a whole-cell configuration was used to examine functional activity of ketamine, norketamine, DHNK and HNK metabolites at the α7 and α3β4 neuronal […] receptors (nAChRs). The activity of these compounds at the α3β4 nAChR was investigated using nicotine-stimulated 86Rb+ efflux assays in HEK293 cells expressing the α3β4 nAChR.
Since nicotinic acetylcholine receptors (nAChR) have been validated as a target in analgesia we have investigated the activity of DHNK ([…]) at two nAChR subtypes, α7 and α3β4 nAChR. The patch clamp in a whole cell configuration was used to examine functional activity of ketamine, norketamine, and the DHNK and HNK metabolites on currents evoked by 280 micromolar acetylcholine in the KXα7R1. The data was obtained at −80 mV and normalized to the amplitude of current elicited by ACh alone, n=4.

α3β4 nAChR = target: T2, α3β4 nAChR (Rattus norvegicus, UniProt P04757+P12392); assay: nicotine-stimulated 86Rb+ efflux in HEK293 cells expressing α3β4 nAChR; whole-cell patch clamp; assay type: cell-based
T2 construct: expressed in transfected cells; host or cells: HEK293
T2 sequence (P04757 26-499): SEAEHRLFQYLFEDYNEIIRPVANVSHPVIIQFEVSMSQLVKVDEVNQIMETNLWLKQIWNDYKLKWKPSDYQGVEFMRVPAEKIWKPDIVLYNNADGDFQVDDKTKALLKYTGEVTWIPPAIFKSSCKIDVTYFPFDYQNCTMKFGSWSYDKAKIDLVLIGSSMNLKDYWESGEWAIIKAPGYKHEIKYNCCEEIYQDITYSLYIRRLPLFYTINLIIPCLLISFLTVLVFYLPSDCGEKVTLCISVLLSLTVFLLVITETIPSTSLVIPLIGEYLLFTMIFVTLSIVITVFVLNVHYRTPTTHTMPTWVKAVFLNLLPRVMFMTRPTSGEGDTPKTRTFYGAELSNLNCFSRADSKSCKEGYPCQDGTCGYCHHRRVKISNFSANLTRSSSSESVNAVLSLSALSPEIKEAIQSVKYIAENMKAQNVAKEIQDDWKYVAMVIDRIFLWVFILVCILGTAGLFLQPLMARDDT
T2 sequence (P12392 21-495): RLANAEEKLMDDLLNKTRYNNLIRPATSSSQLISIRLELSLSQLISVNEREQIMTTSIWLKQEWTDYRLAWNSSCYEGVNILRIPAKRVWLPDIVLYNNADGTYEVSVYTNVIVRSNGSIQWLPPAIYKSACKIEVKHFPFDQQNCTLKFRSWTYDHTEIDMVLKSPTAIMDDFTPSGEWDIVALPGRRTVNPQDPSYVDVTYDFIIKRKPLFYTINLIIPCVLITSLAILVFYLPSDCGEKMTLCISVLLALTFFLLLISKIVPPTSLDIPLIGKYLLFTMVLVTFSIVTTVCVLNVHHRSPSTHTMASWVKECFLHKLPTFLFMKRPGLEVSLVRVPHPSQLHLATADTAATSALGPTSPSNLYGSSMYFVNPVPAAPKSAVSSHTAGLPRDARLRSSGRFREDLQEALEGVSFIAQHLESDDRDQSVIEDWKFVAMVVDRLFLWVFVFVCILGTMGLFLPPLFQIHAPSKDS
Source text: as §1

NMDA receptor = NMDA receptor inhibition; assay type: binding; conditions: for Ki: read-out: NMDAR Ki
Description: Certain compounds of Formula I discussed in this disclosure were tested in the above serine racemase assay, for NMDA receptor inhibition and inhibition of the nicotinic acetylcholine receptor subtype α7. The assay for nicotinic acetylcholorine receptor subtype α7 is given below in Example 6.

serine racemase [1] = target: T3, serine racemase (Homo sapiens, UniProt Q9GZT4); assay: serine racemase inhibition assay (intracellular D-serine by CE-LIF); assay type: cell-based; conditions: 36 h incubation, cell line not stated
T3 sequence (Q9GZT4 1-340): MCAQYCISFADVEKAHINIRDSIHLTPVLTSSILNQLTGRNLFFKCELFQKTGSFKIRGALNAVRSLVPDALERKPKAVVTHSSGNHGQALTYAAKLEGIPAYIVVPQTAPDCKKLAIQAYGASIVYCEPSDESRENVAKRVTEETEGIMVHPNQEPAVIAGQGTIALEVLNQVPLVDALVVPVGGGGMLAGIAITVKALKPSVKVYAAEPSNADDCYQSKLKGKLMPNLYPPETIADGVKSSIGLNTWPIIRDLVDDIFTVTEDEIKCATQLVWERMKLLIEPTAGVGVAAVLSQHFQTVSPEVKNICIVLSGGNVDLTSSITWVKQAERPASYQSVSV
Source text: The cell lines selected for this study were PC-12 pheochromocytoma derived from rat adrenal medulla, human-derived 1321N1 astrocytoma, rat-derived C6 glioblastoma, and human-derived HepG2 hepatocellular carcinoma. All of the cell lines were obtained from ATCC (Manassas, Va., USA). The PC12 cells were maintained in RPMI7 1640 with L-Gln supplemented with 10% horse serum (heat inactivated), 5% FBS, 1% sodium pyruvate solution, 1% HEPES buffer and 1% penicillin/streptomycin solution. The 1321N1 and C6 cells were maintained in DMEM with L-Gln supplemented with 10% FBS and 1% penicillin/streptomycin solution. The HepG2 cells were maintained in E-MEM supplemented with 1% L-Gln, 10% FBS, 1% sodium pyruvate solution and 1% penicillin/streptomycin solution.
(§2) Instrumentation: The CE separations were performed with a P/ACE MDQ system equipped with a laser-induced fluorescence detector (Beckman Instruments, Fullerton, Calif., USA). The laser-induced fluorescence detection was carried out with excitation at 488 nm and emission at 520 nm. […] Quantification was accomplished using area ratios calculated for FITC-D-Ser with FITCD-Arg as the internal standard, where the concentration of the internal standard was set at 5 μM. […]

[2] = plasma half-life and oral bioavailability (statement); conditions: in vivo
serine racemase [3] = target: T3, serine racemase; assay: intracellular D-serine concentration in 1321N1 astrocytoma cells; assay type: cell-based; parameters: host or cells: 1321N1 astrocytoma; conditions: read-out: IC50, reduction of intracellular D-serine
Source text: Applicants have determined that ketamine inhibits NMDA (N-methyl-D-aspartic acid) receptors by inhibiting serine racemase and thereby limiting the concentration of D-serine available to interact with the NMDA receptor. An indirect inhibition of SR activity by ketamine or ketamine metabolites through the inhibition of nAChR activity was hypothesized. PC12 cells were chosen to test the hypothesis since the cell line expresses active SR and α7 and α3β4 nAChRs.
The cell lines selected for this study were PC-12 pheochromocytoma derived from rat adrenal medulla, human-derived 1321N1 astrocytoma, rat-derived C6 glioblastoma, and human-derived HepG2 hepatocellular carcinoma. All of the cell lines were obtained from ATCC (Manassas, Va., USA). […]
as §2

Row | Compound | activity at α7 nAChR (α7 nAChR) | Ki (NMDA receptor) | current evoked by 280 micromolar acetylcholine, normalized to current elicited by ACh alone (Mean) (α7 nAChR; 100 nM) | current evoked by 280 micromolar acetylcholine, normalized to current elicited by ACh alone (Mean) (α7 nAChR; 1000 nM) | inhibition at 0.1 µM (α7 nAChR) | other results
1 | CNC1(c2ccccc2Cl)CCCCC1=O (centres unmarked) [ketamine] | inactive |  |  |  |  | IC50 (α3β4 nAChR): 10 µM
2 | N[C@]1(c2ccccc2Cl)CCCCC1=O [(S)-norKet, (S)-norketamine, reference compound] |  | 2.25 ± 0.22 µM |  |  |  | IC50 (serine racemase [1]): 0.05 to 0.12 µM
3 | N[C@@]1(c2ccccc2Cl)CCC=CC1=O [(R)-DHNK, (R)-5,6-dehydroxynorketamine hydrochloride] |  | 74.5 µM |  |  |  | 
4 | N[C@]1(c2ccccc2Cl)CCC[C@H](O)C1=O (stereo in doubt) [(2R,6R)-HNK, (2R,6R)-6-Hydroxynorketamine Hydrochloride] |  | > 100 µM | 0.489 | 0.354 | 51% | 
5 | NC1(c2ccccc2Cl)CCCCC1=O (racemic) [(R,S)-norKet, norketamine] | inactive |  | 0.548 | 0.287 | 46% | 
6 | N[C@]1(c2ccccc2Cl)CCC=CC1=O [(S)-DHNK, (S)-1-amino-2′-chloro-5,6-dihydro-[1,1′-biphenyl]-2(1H)-one] |  | 39 µM |  |  |  | 
7 | NC1(c2ccccc2Cl)CCC=CC1=O (racemic) [(R,S)-DHNK, (R,S)-dehydronorketamine] | potent inhibitor |  | 0.407 | 0.205 |  | IC50 (α7 nAChR; read-out: IC50 (α7)): ~0.05 µM; IC50 (α7 nAChR; read-out: IC50 at α7 nAChR): 0.05 µM; activity at α3β4 nAChR (α3β4 nAChR): inactive; plasma half-life [2]: long; oral bioavailability [2]: orally bioavailable; IC50 (serine racemase [3]): 0.0164 µM
8 | N[C@@]1(c2ccccc2Cl)CCC[C@@H](O)C1=O [(2R,6R; 2S,6S)-hydroxynorketamine] |  |  |  |  |  | activity at the NMDA receptor (NMDA receptor): not active
9 | N[C@@]1(c2ccccc2Cl)CCCCC1=O [(R)-norKet, (R)-norketamine, reference compound] |  | 26.5 µM |  |  |  | IC50 (serine racemase [1]): 0.04 to 0.08 µM
10 | N[C@@]1(c2ccccc2Cl)CCC[C@@H](O)C1=O [(2S,6S)-HNK, (2S,6S)-6-Hydroxynorketamine Hydrochloride] |  | 21.2 µM | 0.461 | 0.361 | 54% | plasma half-life [2]: long; oral bioavailability [2]: orally bioavailable
